From the Kinase Knowledgebase extract (Sharma et al. 2016)
Values joined by “and” are separate entries in the source; they are usually repeats but may differ in a detail not shown here. Equal entries are not always repeated.

Biological target: EGFR (Human), P00533 [T790M/L858R]
Conditions: nci-h1975

Chain of EGFR (Human), P00533 [T790M/L858R] (P00533 whole entry T790M/L858R, looked up): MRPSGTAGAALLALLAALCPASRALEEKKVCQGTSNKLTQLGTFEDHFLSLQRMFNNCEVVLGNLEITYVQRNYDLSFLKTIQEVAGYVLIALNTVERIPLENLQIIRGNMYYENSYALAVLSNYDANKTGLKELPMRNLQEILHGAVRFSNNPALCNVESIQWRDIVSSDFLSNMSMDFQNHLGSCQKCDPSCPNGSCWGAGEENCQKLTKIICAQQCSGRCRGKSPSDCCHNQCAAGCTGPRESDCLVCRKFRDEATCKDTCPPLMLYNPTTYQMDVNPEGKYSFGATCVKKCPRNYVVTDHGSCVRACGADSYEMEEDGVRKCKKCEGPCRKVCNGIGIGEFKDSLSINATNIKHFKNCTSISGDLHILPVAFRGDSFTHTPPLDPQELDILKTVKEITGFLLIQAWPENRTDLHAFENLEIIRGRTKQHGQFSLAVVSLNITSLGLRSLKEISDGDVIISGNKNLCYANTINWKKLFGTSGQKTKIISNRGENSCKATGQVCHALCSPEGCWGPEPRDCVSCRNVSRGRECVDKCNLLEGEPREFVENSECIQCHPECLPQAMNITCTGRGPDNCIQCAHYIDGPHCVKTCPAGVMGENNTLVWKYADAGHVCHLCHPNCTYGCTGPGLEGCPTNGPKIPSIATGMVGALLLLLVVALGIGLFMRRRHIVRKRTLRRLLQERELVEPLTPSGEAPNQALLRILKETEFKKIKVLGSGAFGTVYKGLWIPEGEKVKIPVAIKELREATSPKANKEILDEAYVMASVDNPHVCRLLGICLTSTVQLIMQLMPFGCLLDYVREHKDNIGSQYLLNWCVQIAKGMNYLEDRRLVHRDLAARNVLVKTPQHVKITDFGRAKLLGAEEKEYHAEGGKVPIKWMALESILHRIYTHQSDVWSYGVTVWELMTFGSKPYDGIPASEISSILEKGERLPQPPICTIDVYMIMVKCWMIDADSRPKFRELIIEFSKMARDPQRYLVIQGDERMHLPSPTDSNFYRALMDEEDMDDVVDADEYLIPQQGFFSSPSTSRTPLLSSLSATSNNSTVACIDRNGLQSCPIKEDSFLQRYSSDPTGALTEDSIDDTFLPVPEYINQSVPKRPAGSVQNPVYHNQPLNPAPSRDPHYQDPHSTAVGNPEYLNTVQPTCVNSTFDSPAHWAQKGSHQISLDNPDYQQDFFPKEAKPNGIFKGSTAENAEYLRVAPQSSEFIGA

EC50 | SMILES
431 nM | CC(C)n1nc(N2CCC3(COC3)C2)c2cnc(Nc3ccnc(-c4cnn(S(=O)(=O)C5CC5)c4)n3)cc21
2200 nM | CCC(C)n1nc(N2CC[C@H](C(N)=O)C2)c2cnc(Nc3ccnc(N4CCC(C)(O)CC4)n3)cc21 (stereo partly drawn)
4620 nM | CC(Nc1nn(C(C)C)c2cc(Nc3ccnc(-c4cnn(S(=O)(=O)C5CC5)c4)n3)ncc12)C(N)=O (stereo not drawn)
1710 nM | Cc1cn[nH]c1-c1nn(C(C)C)c2cc(Nc3ccnc(N4CCC(O)C(C)(C)C4)n3)ncc12 (stereo not drawn)
344 nM | CC(C)n1nc(N2CC(C(=O)N3CCOCC3)C2)c2cnc(Nc3ccnc(-c4cnn(S(=O)(=O)C5CC5)c4)n3)cc21
825 nM | CC(C)NC(=O)C1CN(c2nn(C(C)C)c3cc(Nc4ccnc(-c5cnn(S(=O)(=O)C6CC6)c5)n4)ncc23)C1
921 nM | CCS(=O)(=O)n1cc(-c2nccc(Nc3cc4c(cn3)c(NC3COC3)nn4C(C)C)n2)cn1
620 nM | CC(C)n1nc(N2CC(C)(CO)C2)c2cnc(Nc3ccnc(-c4cnn(S(=O)(=O)C5CC5)c4)n3)cc21
348 nM | CC[C@H](C)n1nc(N2CC3(COC3)C2)c2cnc(Nc3ccnc(N4CC[C@@H](O)[C@@H](F)C4)n3)cc21
738 nM | CC(C)n1nc(N2CCNC(=O)C2)c2cnc(Nc3ccnc(-c4cnn(S(=O)(=O)C5CC5)c4)n3)cc21
380 nM | COC1CCN(c2nccc(Nc3cc4c(cn3)c(N3CCCC3)nn4C(C)C)n2)CC1
404 nM | CC(C)n1nc(N2CC[C@@H](O)C2)c2cnc(Nc3ccnc(N4CC[C@@H](O)[C@@H](F)C4)n3)cc21
938 nM | CC(C)n1nc(N2CC(C(N)=O)C2)c2cnc(Nc3ccnc(-c4cnn(S(=O)(=O)C5CC5)c4)n3)cc21
1100 nM | CC(C)n1nc(N2CC(C#N)CC2=O)c2cnc(Nc3ccnc(N4CCC(C)(O)CC4)n3)cc21 (stereo not drawn)
835 nM | CC(C)n1nc(N2CC[S+]([O-])CC2)c2cnc(Nc3ccnc(-c4cnn(S(=O)(=O)C5CC5)c4)n3)cc21
1840 nM | CC(C)n1nc(N2CCOCC2)c2cnc(Nc3ccnc(-c4cnn(CC5CC5)c4)n3)cc21
> 10000 nM | CC(C)n1nc(NCC(F)(F)F)c2cnc(Nc3ccnc(-c4cnn(S(=O)(=O)C5CC5)c4)n3)cc21
334 nM | CC[C@@H](C)n1nc(N2CC(C(C)(C)O)C2)c2cnc(Nc3ccnc(N4CC[C@@H](O)[C@@H](F)C4)n3)cc21
1160 nM | CC(C)n1nc(N2CC(C(=O)N3CC[C@H](CO)C3)C2)c2cnc(Nc3ccnc(-c4cnn(S(=O)(=O)C5CC5)c4)n3)cc21
201 nM | CC(C)n1nc(N2CC[C@H](O)C2)c2cnc(Nc3ccnc(-c4cnn(S(=O)(=O)C5CC5)c4)n3)cc21

EC50 | SMILES
138 nM | CCC(C)n1nc(N2CCNC2=O)c2cnc(Nc3ccnc(-c4cnn(S(=O)(=O)C5CC5)c4)n3)cc21 (stereo not drawn)
831 nM | CC(C)n1nc(N2CC[C@@H](O)C2)c2cnc(Nc3ccnc(N4CCC(C)(O)CC4)n3)cc21
3590 nM | CC(C)Oc1nn(C(C)C)c2cc(Nc3ccnc(-c4cnn(S(=O)(=O)C5CC5)c4)n3)ncc12
660 nM | CC(C)n1nc(N2CC(O)(CO)C2)c2cnc(Nc3ccnc(-c4cnn(S(=O)(=O)C5CC5)c4)n3)cc21
761 nM | CCC(C)n1nc(N2CC(N)C(F)(F)C2)c2cnc(Nc3ccnc(N4CCC(C)(O)CC4)n3)cc21 (stereo not drawn)
1070 nM | CC(n1nc(N2CCNC2=O)c2cnc(Nc3ccnc(N4CCC(C)(O)CC4)n3)cc21)C(F)(F)F (stereo not drawn)
8270 nM | CC(C)n1nc(NC(C)(C)C#N)c2cnc(Nc3ccnc(N4CC[C@H](O)[C@H](F)C4)n3)cc21
208 nM | CCC(C)n1nc(N2CCNC2=O)c2cnc(Nc3ccnc(N4CC[C@H](O)[C@H](F)C4)n3)cc21 (stereo partly drawn)
732 nM | CC(C)n1nc(N2CC3(COC3)C2)c2cnc(Nc3ccnc(-c4cnn(CC5CC5)c4)n3)cc21
397 nM | CCS(=O)(=O)n1cc(-c2nccc(Nc3cc4c(cn3)c(N3CC(CO)C3)nn4C(C)C)n2)cn1
429 nM | CC[C@H](C)n1nc(N2CC(C(C)(C)O)C2)c2cnc(Nc3ccnc(N4CC[C@@H](O)[C@@H](F)C4)n3)cc21
159 nM | CC(C)n1nc(N2CC(C(=O)N(C)C)C2)c2cnc(Nc3ccnc(-c4cnn(S(=O)(=O)C5CC5)c4)n3)cc21
139 nM | CC(C)n1nc(N2CC[C@H](CO)C2)c2cnc(Nc3ccnc(-c4cnn(S(=O)(=O)C5CC5)c4)n3)cc21
630 nM | CC(C)n1nc(N2CC[C@H](O)C2=O)c2cnc(Nc3ccnc(-c4cnn(S(=O)(=O)C5CC5)c4)n3)cc21
> 10000 nM | CC(C)n1nc(N2CC(N)CC2=O)c2cnc(Nc3ccnc(N4CCC(C)(O)CC4)n3)cc21 (stereo not drawn)
206 nM | CC(C)n1nc(N2CCOC2=O)c2cnc(Nc3ccnc(-c4cnn(S(=O)(=O)C5CC5)c4)n3)cc21
1640 nM | CC(C)n1nc(NC2CCS(=O)(=O)C2)c2cnc(Nc3ccnc(-c4cnn(S(=O)(=O)C5CC5)c4)n3)cc21 (stereo not drawn)
423 nM | CC(C)n1nc(N2CC(C(C)(C)O)C2)c2cnc(Nc3ccnc(-c4cnn(S(=O)(=O)C5CC5)c4)n3)cc21
949 nM | CC(C)n1nc(N2CCS(=N)(=O)CC2)c2cnc(Nc3ccnc(-c4cnn(S(=O)(=O)C5CC5)c4)n3)cc21
498 nM | CC(C)n1ncc2cnc(Nc3ccnc(-c4cnn(CC5CC5)c4)n3)cc21

EC50 | SMILES
283 nM | CC(C)n1nc(N2CC(C(=O)N3CC4CCC(C3)O4)C2)c2cnc(Nc3ccnc(-c4cnn(S(=O)(=O)C5CC5)c4)n3)cc21
537 nM | CCC(C)n1nc(N2CC(C(C)O)C2)c2cnc(Nc3ccnc(-c4cnn(S(=O)(=O)C5CC5)c4)n3)cc21 (stereo not drawn)
312 nM | CC(C)n1nc(N2CC(F)(F)C2)c2cnc(Nc3ccnc(-c4cnn(S(=O)(=O)C5CC5)c4)n3)cc21
765 nM | CC(C)n1nc(N2CCCNC2=O)c2cnc(Nc3ccnc(-c4cnn(S(=O)(=O)C5CC5)c4)n3)cc21
9980 nM | CCC(C)n1nc(N2CCS(=N)(=O)CC2)c2cnc(Nc3ccnc(N4CCC(C)(O)CC4)n3)cc21 (stereo not drawn)
1160 nM and 851 nM | CC[C@@H](C)n1nc(N2CC3(COC3)C2)c2cnc(Nc3ccnc(N4CC[C@](C)(O)[C@H](F)C4)n3)cc21
121 nM | CC(C)n1nc(N2CC[C@@H](C#N)C2)c2cnc(Nc3ccnc(-c4cnn(S(=O)(=O)C5CC5)c4)n3)cc21
201 nM | CC(C)n1nc(N2CCC(O)C2)c2cnc(Nc3ccnc(-c4cnn(S(=O)(=O)C5CC5)c4)n3)cc21 (stereo not drawn)
432 nM | CC(C)n1nc(N2CC(N3CCOCC3)C2)c2cnc(Nc3ccnc(-c4cnn(S(=O)(=O)C5CC5)c4)n3)cc21
3290 nM | CC(n1nc(N2CC3(COC3)C2)c2cnc(Nc3ccnc(N4CCC(C)(O)CC4)n3)cc21)C(F)(F)F (stereo not drawn)
4620 nM | CC(C)n1nc(NC(C)(C)C)c2cnc(Nc3ccnc(-c4cnn(S(=O)(=O)C5CC5)c4)n3)cc21
586 nM | CCC(C)n1nc(N2CC[C@@H](O)C2=O)c2cnc(Nc3ccnc(-c4cnn(S(=O)(=O)C5CC5)c4)n3)cc21 (stereo partly drawn)
2860 nM | CC(C)n1nc(N2CCC(C)(C(N)=O)C2)c2cnc(Nc3ccnc(N4CCC(C)(O)CC4)n3)cc21 (stereo not drawn)
149 nM | CC[C@@H](C)n1nc(N2CC3(COC3)C2)c2cnc(Nc3ccnc(N4CC[C@@H](O)[C@@H](F)C4)n3)cc21
877 nM | CC(C)n1nc(NCCO)c2cnc(Nc3ccnc(-c4cnn(S(=O)(=O)C5CC5)c4)n3)cc21
874 nM and 631 nM | CC[C@H](C)n1nc(N2CC3(COC3)C2)c2cnc(Nc3ccnc(N4CC[C@](C)(O)[C@H](F)C4)n3)cc21
1600 nM | CCC(C)n1nc(N2CC(F)(F)C2)c2cnc(Nc3ccnc(N4CCC(C)(O)CC4)n3)cc21 (stereo not drawn)
3090 nM | CC(C)n1nc(N2CC3(C2)CS(=O)(=O)C3)c2cnc(Nc3ccnc(N4CCC(C)(O)CC4)n3)cc21
